{"source": "paper PMC6788984", "about": "“High-potency ligands for DREADD imaging and activation in rodents and monkeys” (Nature Communications, 2019)", "key": {"[1]": {"biological_target": "T1, hM4Di (Homo sapiens, UniProt P08173, A203G/Y113C)", "T1 sequence (P08173 1-479 Y113C/A203G)": "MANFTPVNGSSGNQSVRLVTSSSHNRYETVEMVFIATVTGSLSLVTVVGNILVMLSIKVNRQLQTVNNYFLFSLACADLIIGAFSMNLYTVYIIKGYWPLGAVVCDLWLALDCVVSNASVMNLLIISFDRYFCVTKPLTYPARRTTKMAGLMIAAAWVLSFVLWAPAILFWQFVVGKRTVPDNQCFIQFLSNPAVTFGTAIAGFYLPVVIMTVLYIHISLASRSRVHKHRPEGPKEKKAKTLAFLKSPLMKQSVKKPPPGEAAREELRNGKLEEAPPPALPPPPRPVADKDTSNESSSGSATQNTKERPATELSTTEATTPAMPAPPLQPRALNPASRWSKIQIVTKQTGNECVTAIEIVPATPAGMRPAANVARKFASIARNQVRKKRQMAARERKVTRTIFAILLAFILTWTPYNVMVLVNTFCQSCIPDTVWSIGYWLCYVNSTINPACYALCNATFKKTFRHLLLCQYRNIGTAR", "experiment": "[3H]clozapine competition binding, membranes of HEK-293 cells expressing hM4Di", "description": "(§1) Cells were routinely tested for myclopasma contamination (MycoAlert® Mycoplasma Detection Kit, Lonza). Cells were seeded on 60 cm^2 dishes at 4 × 10^6 cells/dish 24 h before transfection. The indicated amount of cDNA was transfected into HEK-293 cells using polyethylenimine (PEI; Sigma-Aldrich) in a 1–2 DNA:PEI ratio. Cell harvesting for radioligand binding experiments or signaling assays were performed approximately 48 h after transfection.\n(§2) Cells were suspended in Tris-HCl 50 mM pH 7.4 supplemented with protease inhibitor cocktail (1:100, Sigma-Aldrich, St. Louis, MO, USA). The dissected brain tissue was diluted in Tris-HCl 50 mM buffer supplemented with protease inhibitor cocktail (1:1000). HEK-293 cells or brain tissue were disrupted with a Polytron homogenizer (Kinematica, Basel, Switzerland). Homogenates were centrifuged at 48,000g (50 min, 4 °C) and washed twice in the same conditions to isolate the membrane fraction. Protein was quantified by the bicinchoninic acid method (Pierce). […] In all cases, free and membrane-bound radioligand were separated by rapid filtration of 500-μl aliquots in a 96-well plate harvester (Brandel, Gaithersburg, MD, USA) and washed with 2 ml of ice-cold Tris-HCl buffer. […] One-site competition curves were fitted using Prism 7 (GraphPad Software, La Jolla, CA, USA). Ki values were calculated using the Cheng–Prusoff equation."}, "[2]": {"test_system": "untransfected HEK-293 cells", "experiment": "Negative controls of the functional assays: HEK-293 cells without DREADD", "format": "cell-based, human", "conditions": "HEK-293 cells", "procedure": "BRET assays were performed to detect receptor ligand-induced Gαo1 protein activation. […] Forty-eight hour after transfection cells were harvested, washed and resuspended in phosphate-buffered saline (PBS). Approximately, 200,000 cells/well were distributed in 96-well plates, and 5 µM Coelenterazine H (substrate for luciferase) was added to each well. Five minutes after addition of Coelenterazine H, ligands were added to each well. The fluorescence of the acceptor was quantified (excitation at 500 nm and emission at 540 nm for 1-s recordings) in a PheraStar FSX plate reader (BMG Labtech) to confirm the constant expression levels across experiments. In parallel, the BRET signal from the same batch of cells was determined as the ratio of the light emitted by mVenus (510–540 nm) over that emitted by RLuc (485 nm). Results were calculated for the BRET change (BRET ratio for the corresponding drug minus BRET ratio in the absence of the drug) 5 min after the addition of the ligands.\nIntracellular Ca^2+ concentration was monitored using the fluorescent Ca^2+ biosensor GCaMP6f. HEK-293 cells were transfected with 7 µg/dish of the cDNA encoding for hM3Dq (Addgene #89149) or hM4Di (Addgene #89150) and 7 µg/dish of GCaMP6. Forty-eight hours after transfection, cells were harvested, washed, resuspended in Mg^2+-free Locke’s buffer pH 7.4 (154 mM NaCl, 5.6 mM KCl, 3.6 mM NaHCO3, 2.3 mM CaCl2, and 5 mM HEPES) containing 5.6 mM of glucose and approximately 200,000 cells/well were distributed in black 96-well plates. Increasing concentrations of the indicated compound were added to the cells and fluorescence intensity (excitation at 480 nm, emission at 530 nm) was measured at 18-s intervals during 250 s using a PHERAstar FSX (BMG Labtech). The net change in intracellular Ca^2+ concentration was expressed as F − F0 where F is the fluorescence at a given concentration of ligand and F0 is the average of the baseline values (fluorescence values of buffer-treated wells)."}, "[3]": {"biological_target": "hM3Dq (Homo sapiens, UniProt P20309, A239G/Y149C)", "sequence (P20309 whole entry Y149C/A239G)": "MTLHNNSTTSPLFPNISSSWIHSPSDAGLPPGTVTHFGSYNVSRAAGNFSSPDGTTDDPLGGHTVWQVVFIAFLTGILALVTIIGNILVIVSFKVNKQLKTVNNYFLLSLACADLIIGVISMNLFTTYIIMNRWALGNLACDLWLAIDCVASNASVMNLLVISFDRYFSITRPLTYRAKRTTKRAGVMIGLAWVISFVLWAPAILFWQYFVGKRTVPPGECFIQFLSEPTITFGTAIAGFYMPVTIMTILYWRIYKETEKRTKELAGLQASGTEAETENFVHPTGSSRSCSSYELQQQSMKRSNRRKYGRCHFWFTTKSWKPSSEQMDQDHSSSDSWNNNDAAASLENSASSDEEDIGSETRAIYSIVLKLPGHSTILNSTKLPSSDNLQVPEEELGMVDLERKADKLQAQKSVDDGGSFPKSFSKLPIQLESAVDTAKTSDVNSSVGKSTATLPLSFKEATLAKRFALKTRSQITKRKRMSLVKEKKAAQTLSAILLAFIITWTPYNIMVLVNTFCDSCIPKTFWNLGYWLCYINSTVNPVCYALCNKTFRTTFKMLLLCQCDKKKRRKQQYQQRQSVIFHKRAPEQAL", "experiment": "[3H]clozapine competition binding, membranes of HEK-293 cells expressing hM3Dq", "description": "as §1, §2"}, "[4]": {"test_system": "DREADDs", "experiment": "[18F]JHU37107 PET in D1-DREADD transgenic mice", "format": "in vivo", "procedure": "[^18F]JHU37107 was prepared via the no-carrier-added ^18F-fluorination using an FDG Nuclear Interface module (Muenster, Germany). Briefly, 4 mg precursor (8-chloro-11-(4-ethylpiperazin-1-yl)-5H-dibenzo[b,e][1,4]diazepin-2-ol) and 8 mg tris(acetonitrile)cyclopentadienylruthenium(II)hexafluorophosphate (STREM, Boston, MA) were dissolved in ethanol (0.3 mL), the solution was heated at 85 °C for 25 min and evaporated to dryness under a stream of argon gas. The residue was dissolved in DMSO (0.5 mL) and acetonitrile (0.5 mL) and the solution was added to a dry complex of [^18F]fluoride and 9 mg 1,3-bis(2,6-di-i-propylphenyl)-2-chloroimidazolium chloride (STREM). The reaction mixture was heated at 130 °C for 30 min, diluted with mixture of 0.5 mL acetonitrile, 0.5 mL water and 0.03 mL TFA and injected onto a semi-preparative HPLC column (Luna C18, 10 micron, 10 mm × 250 mm) and eluted with 23:77 (v:v) acetonitrile:water (0.1% trifluoroacetic acid) at a flow rate of 10 mL min^−1. The radioactive peak corresponding to [^18F]JHU37107 (tR = 9.9 min) was collected in a reservoir containing 50 mL of water and 3 mL aq 8.4% NaHCO3 solution. The diluted product was loaded onto a solid phase extraction cartridge (Waters Oasis HLB plus light) and rinsed with 10 mL sterile saline. The product was eluted with 1000 µL of ethanol through a sterile 0.2 μm filter into a sterile, pyrogen-free vial and 10 mL saline was added through the same filter. The final product [^18F]JHU37107 was then analyzed by analytical HPLC (Luna C18, 10 micron, 4.6 mm × 250 mm; mobile phase 23:77 (v:v) acetonitrile:water (0.1% trifluoroacetic acid), flow rate of 3 mL min^−1; […] .\nTotal acquisition time was 60 min."}, "[5]": {"biological_target": "T1, hM4Di", "experiment": "[18F]JHU37107 PET in a monkey expressing hM4Di in the right amygdala", "format": "in vivo, rhesus monkey (Macaca mulatta)", "parameters": "expressed in transfected cells; host or cells: rhesus monkey (Macaca mulatta) right amygdala, lentivirus-transduced neurons", "conditions": "mean", "procedure": "Lentivirus expressing an hM4Di-CFP fusion protein under an hSyn promoter[11] with a titer of >10^9 infectious particles was loaded into a 100 µL glass syringe (Hamilton Co., MA). The 31-gauge needle of the syringe was sheathed with a silica capillary (450 µm OD) to create a step 1 mm from the base of the aperture. The syringe was mounted in a Nanomite pump (Harvard Apparatus, Cambridge, MA). The needle was lowered through the incision in the dura mater to each of the pre-calculated target sites and 10 or 20 µL was infused at a rate of 1 µL min^−1. Each monkey received a total of between 10 and 12 injections (for a total injection volume of 120–240 µL). Post-infusion, the needle was left in situ for 10 min after each injection to allow pressure from the infusate to dissipate. The needle was then slowly removed. At the completion of the injection series the soft tissues were sutured together in anatomical layers.\n[^18F]JHU37107 was prepared via the no-carrier-added ^18F-fluorination using an FDG Nuclear Interface module (Muenster, Germany). Briefly, 4 mg precursor (8-chloro-11-(4-ethylpiperazin-1-yl)-5H-dibenzo[b,e][1,4]diazepin-2-ol) and 8 mg tris(acetonitrile)cyclopentadienylruthenium(II)hexafluorophosphate (STREM, Boston, MA) were dissolved in ethanol (0.3 mL), the solution was heated at 85 °C for 25 min and evaporated to dryness under a stream of argon gas. The residue was dissolved in DMSO (0.5 mL) and acetonitrile (0.5 mL) and the solution was added to a dry complex of [^18F]fluoride and 9 mg 1,3-bis(2,6-di-i-propylphenyl)-2-chloroimidazolium chloride (STREM). The reaction mixture was heated at 130 °C for 30 min, diluted with mixture of 0.5 mL acetonitrile, 0.5 mL water and 0.03 mL TFA and injected onto a semi-preparative HPLC column (Luna C18, 10 micron, 10 mm × 250 mm) and eluted with 23:77 (v:v) acetonitrile:water (0.1% trifluoroacetic acid) at a flow rate of 10 mL min^−1. The radioactive peak corresponding to [^18F]JHU37107 (tR = 9.9 min) was collected in a reservoir containing 50 mL of water and 3 mL aq 8.4% NaHCO3 solution. The diluted product was loaded onto a solid phase extraction cartridge (Waters Oasis HLB plus light) and rinsed with 10 mL sterile saline. The product was eluted with 1000 µL of ethanol through a sterile 0.2 μm filter into a sterile, pyrogen-free vial and 10 mL saline was added through the same filter. The final product [^18F]JHU37107 was then analyzed by analytical HPLC (Luna C18, 10 micron, 4.6 mm × 250 mm; mobile phase 23:77 (v:v) acetonitrile:water (0.1% trifluoroacetic acid), flow rate of 3 mL min^−1; tR = 6.4 min) using a UV detector at 254 nm to determine the radiochemical purity (>95%) and specific radioactivity (152–188 GBq μmol^−1 (4100–5070 mCi μmol^−1)) at the time synthesis ended.\nAll macaque studies were acquired dynamically on the Focus 220 PET scanner (Siemens Medical Solutions, Knoxville, TN). The Focus 220 is a dedicated pre-clinical scanner with a transaxial FOV of 19 cm and an axial FOV of 7.5 cm. Image resolution is <2 mm within the central 5 cm FOV.\nAfter initial evaluation the monkey was sedated with ketamine (10 mg kg^−1) followed by ketoprofen (as an analgesic) and glycopyrrolate (for salvia reduction), all weight dependent IM injections. The monkey would then be placed in the supine position, intubated with a tracheal tube. […] The monkey was always monitored while anesthetized. […]"}}, "note": "Values joined by “and” are separate entries in the source; they are usually repeats but may differ in a detail not shown here. Equal entries are not always repeated.", "data": [{"compound": "CCN1CCN(C2=Nc3ccccc3Nc3ccccc32)CC1", "note": "[C22, reference compound]", "values": [{"measurement": "Ki", "setting": "[1]", "value": 9, "unit": "nM"}]}, {"compound": "C[N+]1([O-])CCN(C2=Nc3cc(Cl)ccc3Nc3ccccc32)CC1", "note": "[CNO, clozapine N-oxide, reference compound]", "values": [{"measurement": "functional response, BRET (Go-alpha-Rluc8, beta1, gamma2-mVenus), no DREADD", "setting": "[2]", "value": "did not show any functional response"}, {"measurement": "functional response, GCaMP6f, no DREADD", "setting": "[2]", "value": "did not show any functional response"}]}, {"compound": "CCN1CCN(C2=Nc3cc(Cl)ccc3Nc3ccc(F)cc32)CC1", "note": "[JHU37107, 8-Chloro-11-(4-ethylpiperazin-1-yl)-2-fluoro-5H-dibenzo[b,e][1,4]diazepine]", "values": [{"measurement": "Ki", "setting": "[3]", "value": 10.5, "unit": "nM"}, {"measurement": "Ki", "setting": "[1]", "value": 23.5, "unit": "nM"}]}, {"compound": "CCN1CCN(C2=Nc3cc(Cl)ccc3Nc3ccc([18F])cc32)CC1", "note": "[[18F]JHU37107]", "values": [{"measurement": "PET binding value, CB (Figure 4 Panel D, first group)", "setting": "[4]; CB, individual values", "value": "0.271 and 0.3157"}, {"measurement": "PET binding value, CB (Figure 4 Panel D, second group)", "setting": "[4]; CB, individual values", "value": "0.004 and 0.238"}, {"measurement": "PET binding value, CB (Figure 4 Panel D, third group)", "setting": "[4]; CB, individual values", "value": "0.02536 and 0.05718 and 0.04755"}, {"measurement": "PET binding value, CTX (Figure 4 Panel D, first group)", "setting": "[4]; CTX, individual values", "value": "0.3049 and 0.3358"}, {"measurement": "PET binding value, CTX (Figure 4 Panel D, second group)", "setting": "[4]; CTX, individual values", "value": "0.244 and 0.22"}, {"measurement": "PET binding value, CTX (Figure 4 Panel D, third group)", "setting": "[4]; CTX, individual values", "value": "0.4367 and 0.4206 and 0.3996"}, {"measurement": "PET binding value, baseline (Figure 4 Panel D)", "setting": "[4]; first line (values equal the STR values of the third group)", "value": "1.736 and 1.664 and 1.424 and 1.7038 and 1.723 and 1.422"}, {"measurement": "PET binding value, baseline (Figure 4 Panel D)", "setting": "[4]; second line (values equal the CTX values of the third group)", "value": "0.4367 and 0.4206 and 0.3996"}, {"measurement": "PET binding value, blocked (Figure 4 Panel D)", "setting": "[4]; first line (STR by position)", "value": "0.6764 and 0.9438 and 0.6607 and 0.8306"}, {"measurement": "PET binding value, blocked (Figure 4 Panel D)", "setting": "[4]; second line (CTX by position)", "value": "0.2742 and 0.4049"}, {"measurement": "PET binding value, blocked (Figure 4 Panel D)", "setting": "[4]; third line (CB by position)", "value": "0.2463 and 0.2748"}, {"measurement": "PET binding value, PFC mean (Figure 4, second Panel l)", "setting": "[5]; PFC", "value": 1.094}, {"measurement": "PET binding value, PUT mean (Figure 4, second Panel l)", "setting": "[5]; PUT", "value": 1.196}, {"measurement": "PET binding value, hM4Di mean (Figure 4, second Panel l)", "setting": "[5]; hM4Di region", "value": 2.423}]}]}
